According to patent publication US8263040B2, “Metal chelates having a perfluorinated PEG radical, processes for their preparation, and their use” (Bayer Schering Pharma AG, priority 2006, dated 2012):

Columns and labels:
[1] = Relaxivity: T1 and T2 relaxation times of water and plasma (bovine), NMR pulse spectrometer (Minispec PC 20); assay type: physicochemical; conditions: for Relaxivity R1 / Relaxivity R2: 40° C., 0.47 T
Description: The T1 and T2 relaxation times of water and plasma (bovine) having increasing concentrations of the substance from Example 2c) contained therein were determined at 40° C. using an NMR pulse spectrometer (Minispec PC 20) at 0.47 T (Table 1).
From the R1 relaxivities in water at high and low concentrations, a critical micelle formation concentration (CMC) of 0.02 mmol of Gd/I can be determined.

mice = experiment: Acute toxicity after single intravenous administration in mice (exploratory); assay type: in vivo; conditions: injection rate 2 ml/min, observation period 7 days
Description: After intravenous administration of the substances of Examples 2c), 21 c) and 22 c) in mice (n=3; injection rate: 2 ml/min), the acute systemic tolerability (LD50) was determined in an exploratory manner. In each case, a number of doses were investigated using an observation period of 7 days. The average acute toxicities to be expected were 2.5 mmol of Gd/kg of body weight for the substance from Example 2c) and >10.0 mmol of Gd/kg of body weight for the substances from Examples 21c) and 22 c).

histamine = experiment: Release of histamine after single intravenous administration in rats (plasma histamine, ELISA); assay type: in vivo; conditions: for Histamine, baseline: before contrast agent administration; for Histamine, 10 min p.i. / Histamine, 30 min p.i. / Histamine, 60 min p.i.: i.v.
Description: After intravenous administration of the substances from Examples 2c) and 22 c) in rats (n=3), the release of histamine was determined at different points in time. For this, blood was taken from the carotid artery before and 10, 30 and 60 minutes after contrast agent administration, and the histamine contained in the plasma was determined by means of an ELISA system. The histamine values measured can be seen in Table 2. The histamine blank values in the conscious rats were in the normal range known from the literature.

[2] = Excretion after intravenous administration in rats (ICP-AES); assay type: in vivo; conditions: i.v., 50 μmol of total gadolinium/kg; for Gd content, rest of body: 14 days after administration; for Gd content, faeces / Gd content, urine: up to 14 days after administration
Description: After intravenous administration of 50 μmol of total gadolinium/kg of body weight of substances from Examples 2c), 21 c) and 22 c) in rats (n=3), the metal content was determined fractionally up to 14 days after administration by means of atomic emission spectrometry (ICP-AES) in the excretion medium urine and faeces, and in the body (rest of body) (Table 3).

[3] = Plasma kinetics after intravenous administration in rats (ICP-AES, WinNonlin); assay type: in vivo; conditions: i.v., 50 μmol of total gadolinium/kg
Description: After intravenous administration of 50 μmol of total gadolinium/kg of body weight of the substances from Examples 2c), 21 c) and 22 c) in rats (n=3), blood samples were taken at different points in time (up to 24 h p.i.) by means of a catheter in the common carotid artery, and the metal content was determined by means of atomic emission spectrometry (ICP-AES) and converted to plasma values by means of a conversion factor (0.625). The pharmacokinetic parameters (Table 4) were calculated from the plasma concentrations by means of special software (WinNonlin).

popliteal lymph nodes = experiment: MRT demonstration of lymph nodes after intravenous administration in rats; assay type: in vivo; conditions: i.v., 50 μmol of Gd/kg, 1.5 T, early points in time (up to 60 min p.i.)
Source text: The figures show exemplary MR shots of popliteal lymph nodes at different points in time after intravenous administration of 50 μmol of Gd/kg of body weight of the substance from Example 2c) in FIG. 1, of the substance from Example 21 c) in FIG. 2, and of the substance from Example 22 c) in FIG. 3 in rats.

[4] = in vivo; cited from earlier work
[5] = plasma (bovine), Gd concentration 0.271-1.086 mmol/l
[6] = water, Gd concentration 0.000-0.009 mmol/l
[7] = water, Gd concentration 0.020-1.099 mmol/l

Substance	Histamine, baseline (histamine) [ng/mL]	Histamine, 10 min p.i. (histamine) [ng/mL]	Histamine, 30 min p.i. (histamine) [ng/mL]	Histamine, 60 min p.i. (histamine) [ng/mL]	Gd content, rest of body [2] [% dose]	Gd content, faeces [2] [% dose]	Gd content, urine [2] [% dose]	Vc [3] [L/kg]	Vd ss [3] [L/kg]	α-t½ [3] [min]	β-t½ [3] [min]	signal in the functional lymph node tissue (T1-weighted MR shots) (popliteal lymph nodes)	also measured
1,4,7-Tris(carboxylatomethyl)-10-[(3-aza-4-oxo-5-methyl-5-yl)-acid N-(1H,1H,2H,2H,4H,4H,-3,6,9,12-tetraoxaperfluorohexadecyl)-N-(2-methoxyethyl)amide]-1,4,7,10-tetraazacyclododecane, Gd complex [Example 2c]	3 ± 2	4 ± 4	5 ± 3	3 ± 2	0.2 ± 0.3	92.9 ± 1.5	0.8 ± 0.2	0.05 ± 0.00	0.08 ± 0.01	18.7 ± 2.0	72 ± 12	strong signal increase	critical micelle formation concentration (CMC) ([1]; from the R1 relaxivities in water at high and low concentrations): 0.02 mmol of Gd/I; protein bond (relaxivity in plasma greater than in water) ([1]; plasma (bovine) versus water): indicates a protein bond; Relaxivity R1 [1, 5]: 26.0 ± 0.5 L/mmol/s; Relaxivity R2 [1, 5]: 35.1 ± 0.3 L/mmol/s; Relaxivity R1 [1, 6]: 5.3 ± 0.4 L/mmol/s; Relaxivity R2 [1, 6]: 5.3 ± 1.2 L/mmol/s; Relaxivity R1 [1, 7]: 17.8 ± 0.1 L/mmol/s; Relaxivity R2 [1, 7]: 16.3 ± 0.2 L/mmol/s; acute systemic tolerability (LD50) (mice): 2.5 mmol of Gd/kg of body weight
1,4,7-Tris(carboxylatomethyl)-10-[(3-aza-4-oxo-5-methyl-5-yl)acid N-(1H,1H,2H,2H,4H,4H,-3,6,9,12-tetraoxaperfluorohexadecyl)-N-{2-[2-(2-methoxyethoxy)ethoxy]-ethyl}amide]1,4,7,10-tetraazacyclododecane, Gd complex [Example 22c]	3 ± 1	7 ± 3	4 ± 1	4 ± 1	0.0 ± 0.0	83.4 ± 2.6	1.8 ± 0.1	0.04 ± 0.00	0.06 ± 0.00	23.6 ± 0.6	108 ± 18	strong signal increase	
1,4,7-Tris(carboxylatomethyl)-10-{(3-aza-4-oxo-5-methyl-5-yl)-acid-N-(1H,1H,2H,2H,4H,4H,-3,6,9,12-tetraoxaperfluorohexadecyl)-N-[2-(2-methoxyethoxy)ethyl]amide}-1,4,7,10-tetraazacyclododecane, Gd complex [Example 21c]					0.0 ± 0.0	84.9 ± 0.7	3.8 ± 0.1	0.04 ± 0.00	0.05 ± 0.00	28.4 ± 1.5	78 ± 12	strong signal increase	
Mn-TPPS													LD50 [4]: 0.5 mmol/kg; dose at which an action commences [4]: 0.2 mmol/kg
